Results as given in patent US5242945A, “Tetronic and thiotetronic acid derivatives as phospholipase A2 inhibitors” (American Home Products Corporation, priority 1991, dated 1993).
Read-outs that look alike come from different tables or passages of the source.

Key:
[1] = tested on: purified PLA2, from the diamond back cotton mouth snake (A. piscivorus piscivorus); assay: in vivo PLA2 murine paw edema assay; parameters: species or system A. piscivorus piscivorus PLA2 in CD-1 mice
[2] = tested on: lipoxygenase (LTB4 or 5HETE synthesis); assay: inhibition of LTB4 and 5-HETE synthesis by rat glycogen-elicited polymorphonuclear leukocytes; type: cell-based, rat (female Wistar); settings: Leukocyte, rat PMN; for inhibition at 10 µM: + with * denotes potentiation
Source text: This is especially true with respect to 5,12-diHETE, which is also denoted as LTB4 [see Ford-Hitchinson, J. Roy. Soc. Med., 74, 831 (1981)]. Compounds which inhibit the PLA2 -mediated release of arachidonic acid thereby effectively prevent the oxidation of arachidonic acid to the various leukotriene products via the lipoxygenase cascade. Accordingly, the specificity of action of PLA2 inhibitors can be determined by the activity of test compounds in this assay, which measures the ability of compounds to inhibit the synthesis of LTB4 and 5-HETE by rat glycogen-elicited polymorphonuclear leukocytes (PMN) in the presence of exogenous substrate.
(§1) Rat polymorphonuclear leukocytes (PMNs) are obtained from female Wistar rats (150-200 g) which receive an injection of 6% glycogen (10 ml i.p.). Rats are sacrificed 18-24 hours post injection by CO2 asphyxiation and the elicited cells are harvested by peritoneal lavage using physiological saline (0.9% NaCl). The exudate is centrifuged at 400 xg for 10 minutes. The supernatant fluid is discarded and the cell pellet is resuspended to a concentration of 2.0×10^7 cells/mL in HBSS containing Ca^++ and Mg^++ and 10 μM L-cysteine.
(§2) To 1 mL aliquots of cell suspension, test drugs or vehicle are added, then preincubated at 37° C. for 10 minutes. A23187 (1 μM), [^3 H]-AA (3.0 μCi/mL) and unlabeled AA (1 μM) are then added and the samples are further incubated for 10 minutes. The reaction is terminated by centrifugation and pelleting cells. Supernatants are then analyzed by HPLC analysis on a 15 cm×4.6 mm ID supelcosil LC-18 (Supelco)(3M) column, using a two solvent system at a flow rate of 1.4 mL total flow as follows:
Injections: 140 μL of each supernatant is injected directly onto column and ^3 H arachidonic acid metabolites are monitored using an on-line radioactivity detector (Ramona, IN/US, Fairfield, N.J.).
Co-chromatography with standard [^3 H] leukotriene B4 (LTB4) in medium of stimulated PMN exposed to drug is compared to that found in medium of stimulated cells exposed to no drug, generating percent inhibition.
Results are expressed as percent inhibition at a given compound dose or as an IC50 value.

[3] = tested on: cyclooxygenase (PGE2 or TxB2 synthesis); assay: inhibition of synthesis of cyclooxygenase products PGE2 and TxB2 by rat polymorphonuclear leukocytes; type: cell-based, rat (female Wistar); settings: Leukocyte, rat PMN; for inhibition at 10 µM: + with * denotes potentiation
Experimental: as §1, §2
In this assay, the procedure of Example 58 is carried out as described. However, in order to determine cyclooxygenase activity, the samples are co-chromatographed with authentic reference [^3 H]-TxB2 or [^3 H]-PGE2.
The results are calculated as in Example 58 and presented below: […]

[4] = molecular target: T1, human platelet PLA2 (Homo sapiens, UniProt P14555); assay: in vitro isolated phospholipase A2 assay, human platelet PLA2; type: biochemical; settings: at 10 μM; + values given without explanation; read-out: % Inhibition HP (human platelet)
T1 construct: platelet acid extract PLA2; from tissue; host or cells: human platelets, semipurified acid extract
T1 sequence (P14555 21-144): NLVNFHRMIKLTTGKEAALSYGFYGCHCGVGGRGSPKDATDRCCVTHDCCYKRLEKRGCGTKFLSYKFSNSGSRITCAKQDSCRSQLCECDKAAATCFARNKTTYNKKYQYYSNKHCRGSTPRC
Experimental: (§3) The compounds of the invention are tested in an in vitro isolated phospholipase A2 assay to determine the ability of the test compounds to inhibit the release of arachidonic acid from an arachidonic acid-containing substrate by the action of phospholipase A2 enzyme from human and non-human sources.
(§4) Into a 15 mL polypropylene tube are added the following:
(§5) ^3 H-AA E. coli substrate^1
(§6) Tris-HCl (0.5 M) pH 7.5^3
(§7) PLA2 25 Volume yielding 12%
(§8) 100 hydrolysis in 10 min.
(§9) *pre-incubate at room temperature 30 min prior to substrate addition.
(§10) ^6 Two human PLA2 enzymes are used: a) Semipurified human
(§11) platelet acid extract PLA2 (in 10 mM sodium acetate buffer, pH 4.5).
(§12) Remove protein precipitate by centrifugation at about 2200 rpm for 10
(§13) minutes. b) Purified human synovial fluid.
(§14) Incubate the 100 μL reaction mixture for 10 minutes at 37° C. in a shaking water bath. The reaction is terminated by the addition of 2 mL tetrahydrofuran, followed by vortexing. NH2 columns (100 μg/mL--Analytichem International) are conditioned with 0.5 mL tetrahydrofuran followed by 0.5 mL tetrahydrofuran/water (2 mL:0.1 mL, v/v).
(§15) The sample is loaded onto the columns and slowly drawn through them. The hydrolyzed arachidonic acid retained in the columns is eluted therefrom with 1 mL tetrahydrofuran/glacial acetic acid (2%). The arachidonic acid is transferred to scintillation vials and quantitated by β-counting analysis. A "total counts" sample is prepared by pipetting 25 μL ^3 H-arachidonate E. coli directly into a scintillation vial to which is added 1 mL tetrahydrofuran. 10 mL aquasol (scintillation cocktail) is added to all samples.

[5] = molecular target: T2, human synovial fluid PLA2 (Homo sapiens, UniProt P14555); assay: in vitro isolated phospholipase A2 assay, human synovial fluid PLA2; type: biochemical; settings: for inhibition at 10 µM: + values given without explanation, read-out: % Inhibition HSF (human synovial fluid)
T2 construct: Purified human synovial fluid; from tissue; host or cells: human synovial fluid
T2 sequence (P14555 21-144): T1 sequence (P14555 21-144)
Experimental: as §3, §4, §5, §6, §7, §8, §9, §10, §11, §12, §13, §14, §15

[6] = tested on: lipoxygenase and/or cyclooxygenase pathways of arachidonic acid metabolism; assay: in vivo murine zymosan peritonitis assay; parameters: species or system mouse (CD-1); settings: p.o.
Experimental: The compounds of the invention are evaluated for their ability to inhibit the lipoxygenase and/or cyclooxygenase pathways of arachidonic acid metabolism in the in vivo murine zymosan peritonitis assay.
Male CD-1 mice (8 weeks old) are placed in plastic boxes in groups of six. Animals are injected with 1 mL i.p. of either 1% zymosan in pyrogen free 0.9% saline or saline (unstimulated control). Compounds are dosed orally 1 hour prior to zymosan injection. Twenty minutes after zymosan injection, the mice are asphyxiated by CO2 inhalation and the peritoneal cavity is lavaged with 2 mL ice cold Hanks Balanced Salt Solution (HBSS) without CaCl2, MgSO4. 7H2 O and MgCl2.6H2 O. Peritoneal lavage fluid from each mouse is removed by syringe and placed in 5 mL plastic test tubes put on ice and volume is noted. Preparation of samples for evaluation by ELISA is as follows: Samples are centrifuged at 800 xg for 15 minutes; 1 mL of the supernatant is added to 8 mL ice cold methanol and kept at -70° C. overnight to precipitate protein; and samples are then centrifuged at 800 xg for 15 minutes, followed by a drying procedure in a Savant speed vac concentrator. The samples are reconstituted with 1 mL ice cold ELISA buffer and stored at -70° C. until assayed. The assay for eicosanoids (LTC4 and 6-keto-PGF1α) is performed according to conventional ELISA procedures.
Compounds to be tested orally are suspended in 0.5% Tween 80. Compounds to be tested intraperitoneally are suspended in 0.5% methylcellulose in 0.9% saline.
The total metabolite level in lavage fluid/mouse is calculated and the significance is determined by a one-way analysis of variance with LSD comparisons to control (p≤0.05). Drug effects are expressed as a percent change from control values.

[7] = tested on: platelet-activating factor (PAF) biosynthesis in human polymorphonuclear neutrophils (PMN); assay: platelet-activating factor biosynthesis in human polymorphonuclear neutrophils (in vitro phospholipase A2 assay); type: cell-based; settings: Homo sapiens, Polymorphonuclear neutrophil; in this assay (PAF or LTB4 readout not stated)
Experimental: The compounds of the invention are tested in an in vitro phospholipase A2 assay to determine the ability of the compounds to inhibit the biosynthesis of platelet-activating factor and LTB4 in purified human neutrophils.
A leukocyte enriched blood sample obtained from a healthy donor is procured by leukophoresis using a Haemonetics model 30+ blood processor (Biological Specialties, Inc., Lansdale, Penn.). The top "platelet-rich" layer is removed after a low speed spin (35 xg, 15 min, 25° C.) of the sample. The remaining cell suspension is centrifuged (400 xg, 10 min, 25° C.) to sediment the remaining cells. The supernatant is discarded and the cell pellet resuspended in 120 ml HBSS (without Ca^++ /Mg^++). The cell suspension is subjected to ficoll-hypaque sedimentation (Histopaque 1077, 400 xg, 30 min, 25° C.). Contaminating erythrocytes are lysed by hypotonic shock (1 min). The cells are then washed once with 40 ml of HBSS and resuspended with HBSS (without Ca^++ /Mg^++) to a concentration of 2.5×10^7 cells/ml for further use. Greater than 95% purity is obtained, as assessed by microscopic examination.
One ml of human PMN (2.5×10^7 cells/ml) is incubated with vehicle or drugs (10 μl) for 10 minutes at 30° C. After preincubation, an equal volume of HBSS (1 ml) containing 2.4 mM CaCl2, 6 μM calcium ionophore A23187 and 50 μCi [^3 H]-acetate is then incubated at 30° C. for 15 minutes. An aliquot (100 μl) of the reaction mixture is taken out and mixed with 900 μl of 15% ethanol. LTB4 is extracted by using solid phase extraction on reverse phase C18 columns to remove excess [^3 H]-acetate and PAD. The C18 column is prewashed once with 2 ml of ethanol and water. The sample aliquot is acidified with 0.1N HCl to pH 3 before applying to the column. The column is then washed with 2 ml of water followed by 2 ml of 15% ethanol and 2 ml of petroleum ether to remove excess labeled acetate. The sample is eluted with 2 ml of ethyl acetate. The collected samples are dried with nitrogen and resuspended in 0.5 ml RIA buffer. The quantity of LTB4 in the sample is obtained from RIA determination. For PAF determination, the reaction is terminated by addition of 5 ml chloroform:methanol:acetic acid (2:1:0.04, v/v/v). [^3 H]-PAF is obtained by Bligh and Dyer extraction. The chloroform phase is removed and dried under nitrogen. The residue is redissolved in 75 μl of chloroform:methanol (80:20, v/v). [^3 H]-PAF is resolved from other phospholipids by TLC on RPC18 plates with a solvent system of chloroform:methanol:water (2:3:1, v/v/v) and is quantitated using a Berthold automated TLC linear analyzer.
Data presented are the mean +/- s.d. of the values relative to control A23187 stimulated cells for each experiment assayed in triplicate. Percent inhibition when used is calculated as:
% Inhibition=100-[(x.div.Control)×100].
Dose response analysis is performed by non-linear regression analysis for curve fitting and IC50 determination.

## C[C@@H]1C[C@H]2[C@@H]3CCC4=CC(=O)C=C[C@]4(C)[C@@]3(F)[C@@H](O)C[C@]2(C)[C@@]1(O)C(=O)CO [Dexamethasone, reference compound]
[1]; p.o. 3 hr, at +10 min
  ED50 at +10 min.: 10 mg/kg

## O=C(/C=C/c1ccccc1)C1=C(O)COC1=O [Example 8, (E)-4-Hydroxy-3-(3-(phenyl)-1-oxo-2-propenyl)-2(5H)-furanone]
[2]; read-out: % Inhibition LTB4
  inhibition at 10 µM: 10%
[3]; read-out: % Inhibition TxB2
  inhibition at 10 µM: 1%
[4]
  inhibition at 10 µM: 3%
[5]; Table IV, read-out: IC50 HSF (human synovial fluid)
  IC50: 10.5 µM
[5]
  inhibition at 10 µM: 77%

## CCC/C=C\CCCCCCCCC(=O)C1=C(O)COC1=O [Example 23, 4-Hydroxy-3-((Z)-1-oxo-10-tetradecenyl)-2(5H)-furanone]
[2]; read-out: % Inhibition 5-HETE
  inhibition at 10 µM: 93%
[2]; read-out: % Inhibition LTB4
  inhibition at 10 µM: 83%
[3]; read-out: % Inhibition PGE2
  inhibition at 10 µM: 1%
[3]; read-out: % Inhibition TxB2
  inhibition at 10 µM: 8%
[4]
  inhibition at 10 µM: 52.7%
[5]
  inhibition at 10 µM: 44%
[1]; 1 mg/kg i.p.
  % Change in Edema 30 min: -41%
  % Change in Edema 60 min: -20%
[1]; 10 mg/kg i.p.
  % Change in Edema 30 min: -48%
  % Change in Edema 60 min: -28%

## CCCCCC/C=C\CCCCCCCC(=O)C1=C(O)COC1=O [Example 26, 4-Hydroxy-3-((Z)-1-oxo-9-hexadecenyl)-2(5H)-furanone]
[2]; read-out: % Inhibition 5-HETE
  inhibition at 10 µM: 85%
[2]; read-out: % Inhibition LTB4
  inhibition at 10 µM: 82%
[3]; read-out: % Inhibition PGE2
  inhibition at 10 µM: 6%
[3]; read-out: % Inhibition TxB2
  inhibition at 10 µM: 1%
[4]
  inhibition at 10 µM: 24.4%
[5]
  inhibition at 10 µM: 1.7%
[1]; 1 mg/kg i.p.
  % Change in Edema 30 min: -62%
  % Change in Edema 60 min: -38%
[1]; 10 mg/kg i.p.
  % Change in Edema 30 min: -67%
  % Change in Edema 60 min: -43%

## CC(C)Cc1ccc(C(C)C(=O)O)cc1 (stereo not drawn) [Ibuprofen]
[6]
  ED50 LTC4: Not Active

## CCc1cccc2c3c([nH]c12)C(CC)(CC(=O)O)OCC3 (stereo not drawn) [etodolac, reference compound]
[2]; at 0.5 μM
  inhibition at 0.5 µM: 21%
[3]; at 0.5 μM
  inhibition at 0.5 µM: 100%

## CC(=O)O[C@H]1C[C@@H]2[C@@]3(C)CCCC(C)(C)[C@@H]3CC[C@@]2(C)[C@@H]2CC=C(C=O)[C@H](C=O)[C@@]12C [scalaradial, reference compound]
[7]
  IC50: 1 µM
